How the values were obtained:
[1] = Phase 1 SAD clinical trial, plasma naproxen (M25) levels; type: in vivo, human; details: single oral dose of about 1500 mg to 2000 mg
Experimental: Otenaproxesul (crystalline form) was orally administered at a range of doses to healthy volunteers, both as a single dose, and as a daily (or twice-daily) dose for 14 days. Each cohort consisted of 8 subjects, with 6 receiving otenaproxesul and 2 receiving placebo. A total of 8 cohorts were studied in the single-dose study (25 mg, 75 mg, 150 mg, 300 mg, 500 mg, 1000 mg, 1500 mg and 2000 mg), and 3 cohorts in the multiple-dose study (250 and 750 once daily, and 750 mg bid (e.g., 1500 mg/day) for 14 days). All adverse events were recorded, and blood samples were drawn prior to and for at least 72 h after drug administration for measurement of otenaproxesul-derived naproxen levels. Routine cardiovascular, renal, hepatic and hematological biomarkers were monitored, along with clinical signs. […]
It is noted from the pharmacokinetic curves in FIG. 1 showing naproxen metabolite (M25) plasma levels following single dose crystalline otenaproxesul administrations in healthy subjects from the Phase 1 single ascending dose (SAD) study in Example 1, the time to attain maximal plasma concentration of M25 varies widely between 6 and 48 hours across the dosage spectrum. […] Therefore, while not being bound by theory, a single 2000 mg treatment is predicted to provide pain relief for 3 days and possibly to 5 days based upon measured and projected M25 plasma concentrations. […]

thromboxane B2 = assay: Phase 2b study, plasma thromboxane B2; type: in vivo, human
Experimental: Whole blood samples were taken pre-treatment and on Days 1, 4 and 14 for the measurement of thromboxane B2 as an index of cyclo-oxygenase enzyme inhibition. Thromboxane B2 levels were measured using the Thromboxane B2 Elisa Kit from Cayman Chemical, Ann Arbor Michigan. Instructions provided with the Kit were followed.
Blood samples for measurement of thromboxane concentrations were collected at room temperature in 10 mL red top, no additive Vacutainers. Blood samples were taken approximately 4 hours after dosing and divided into 2 aliquots. The first aliquot (1 mL) was prepared for the measurement of otenaproxesul-derived plasma naproxen concentrations. The second aliquot (2 mL) was further divided into 2 polypropylene tubes for the measurement of plasma thromboxane concentrations.

liver transaminases = assay: 28-day PK/PD and AME clinical study in healthy older adults, liver transaminase elevations; type: in vivo, human; details: 100 mg cohort, full drug administration period
Experimental: The study was designed in part on the observation that across the otenaproxesul treatment groups, treatment-related >3×ULN (“upper limit of normal”) ALT and/or AST transaminase levels were noted (almost exclusively after the 14-day dosing interval) in 9.8% (6/61) of patients in the 150 mg arm, 7.2% (9/125) of patients in the 200 mg arm and 12.9% (17/132) patients in the 250 mg arm, with this issue being substantially biased towards females),
In this clinical trial, 28-day human safety/PK data was generated to complement the 14-day DRF data from Example 2. Biomarker data/dose (e.g., thromboxane B2) were also generated using standard ELISA assay kits.
Otenaproxesul was supplied as 75 mg, 100 mg and 125 mg, brown, film-coated tablets and was in crystalline form. Patients were instructed to take 1 tablet of otenaproxesul in the morning after an overnight fast. Food intake was restricted until at least 30 minutes after the morning dose.
The study enrolled a total of 42 subjects on either a 75 mg or 100 mg dose per day of otenaproxesul, of whom 35 had completed the 28-day drug administration period, with seven subjects having been administered the drug for 21 days before the study was paused. […]

liver adverse effects = assay: Clinical study of three crystalline otenaproxesul regimens, liver safety; type: in vivo, human; details: 1500 mg single; 1500 mg + 100 mg Days 2-5; 2000 mg single
Experimental: Data were collected over a 312-hour period at protocol-specified intervals. Sampling was most frequent during the first 2 hours post drug administration. Treatment regimens were (i) otenaproxesul single dose 1500 mg (Total 1500 mg); (ii) crystalline otenaproxesul Day 1 single dose 1500 mg plus 100 mg on Days 2-5 (Total 1900 mg) or (iii) crystalline otenaproxesul single dose 2000 mg (Total 2000 mg).

[2] = Stability/purity of ASDs by HPLC; type: physicochemical; details: no storage condition given
Experimental: The stability of the exemplary amorphous solid dispersions of the application were evaluated using HPLC and are shown in Tables 14 A and B.
HPLC analyses were performed on a Waters 2695 or Agilent 1200, or equivalent, instrument. The column was an ACE-5 C18 150 mm×4.6 mm, 5 μm or equivalent column. The flow rate was 1.0 mL/min, the injection volume was 10 μL, the column temperature was 25° C., the sample temperature was 5° C. and the wavelength for detection was 254 nm. Two eluents were used which were either (1) A: 1.8 g K2HPO4·3H2O dissolved in 1000 ml of water and pH adjusted to 5.5 using orthophosphoric acid and B: acetonitrile; or (2) A: 1.4 g K2HPO4·3H2O dissolved in 1000 ml of water and pH adjusted to 7.0 with 85% phosphoric acid and B: acetonitrile.

TXB2 = assay: Pharmacodynamics in Beagle dogs, plasma TXB2; type: in vivo; details: 15 mg/kg, Day 1 and Day 4 pre-treatment
Experimental: The pharmacokinetics of five different formulations of otenaproxesul (formerly ATB-346) were evaluated in Beagle dogs. Five groups of dogs (n=3/group) were orally administered their assigned formulations once daily for four days. Blood samples were taken for a full 24-hour PK profile on Day 1 and on Day 4.
Group 1 was administered crystalline otenaproxesul, Group 2 was administered milled crystalline otenaproxesul, Group 3 was administered micro-milled crystalline otenaproxesul, Group 4 was administered exemplary ASD no. 1 (see Example 7A above) and Group 5 was administered exemplary ASD no. 4 (see Example 7A above). Dose administered was 15 mg/kg (human equivalent dose of 525 mg).
Pharmacodynamic assessment of TXB2 and PGE2 plasma concentrations were assessed on: • Day 1, one hour post treatment • Day 1, 12 hours post treatment • Day 4, pre-treatment • Day 4, one hour post treatment • Day 4, 12 hours post treatment.

| Structure (SMILES) | duration of plasma naproxen metabolite greater than about 10 μg/mL [1] | plasma thromboxane B2 levels (thromboxane B2; 150 mg daily) | TXB2 levels (thromboxane B2; Day 1, 150, 200, 250 mg) | inhibition of TXB2 synthesis (thromboxane B2; Day 4, 150, 200, 250 mg) | inhibition of TXB2 synthesis (thromboxane B2; Day 14, 150, 200, 250 mg) | subjects with liver transaminase elevations exceeding five times the upper limit of normal (liver transaminases) | liver adverse effects (liver adverse effects) | ATB-346 API [2] | RRT-0.84 [2] | RRT-0.85 ATB-346-Amide [2] | RRT-1.10 [2] | inhibition of TXB2 relative to ASDs (TXB2) |
| --- | --- | --- | --- | --- | --- | --- | --- | --- | --- | --- | --- | --- |
| COc1ccc2cc([C@H](C)C(=O)Oc3ccc(C(N)=S)cc3)ccc2c1 [otenaproxesul, (S)-4-carbamothioylphenyl 2-(6-methoxynaphthalen-2-yl) propanoate] | over 72 hours | marked reduction in plasma thromboxane B2 levels | significant suppression of thromboxane B2 levels | profound inhibition of thromboxane B2 synthesis | profound inhibition of thromboxane B2 synthesis | Three | – | – | – | – | – | – |
| COc1ccc2cc([C@H](C)C(=O)Oc3ccc(C(N)=S)cc3)ccc2c1 [crystalline otenaproxesul] | – | – | – | – | – | – | No subjects in any of the three treatment arms exhibited any liver adverse effects | 99.45% | 0.18% | 0.07% | 0.25% | inhibition of TXB2 was lower |

— patent US20260355142A1, “AMORPHOUS OTE[…] COMPOSITIONS AND USES THEREOF AND DOSAGE REGIMENS FOR OTENAPROXESUL” (ANTIBE THERAPEUTICS INC., priority 2022, published 2026)
